Assay [1] has as its target T1, α1B adrenergic receptor (Homo sapiens, UniProt P35368).
T1 construct: host or cells: CHO cells
T1 sequence (P35368 1-520): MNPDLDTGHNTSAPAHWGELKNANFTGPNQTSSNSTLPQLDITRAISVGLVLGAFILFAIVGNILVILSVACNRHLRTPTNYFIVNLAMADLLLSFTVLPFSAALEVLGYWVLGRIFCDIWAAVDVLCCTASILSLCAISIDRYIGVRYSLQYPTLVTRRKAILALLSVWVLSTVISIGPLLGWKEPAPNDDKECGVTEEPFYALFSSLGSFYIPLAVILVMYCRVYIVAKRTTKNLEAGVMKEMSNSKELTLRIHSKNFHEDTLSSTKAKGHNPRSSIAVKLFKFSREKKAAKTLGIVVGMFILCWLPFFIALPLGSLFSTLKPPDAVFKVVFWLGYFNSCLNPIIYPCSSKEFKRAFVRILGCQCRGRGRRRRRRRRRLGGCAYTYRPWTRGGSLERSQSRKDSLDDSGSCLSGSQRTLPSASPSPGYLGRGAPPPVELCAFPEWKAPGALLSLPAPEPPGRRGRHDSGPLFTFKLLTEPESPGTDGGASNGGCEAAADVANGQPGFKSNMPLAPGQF
As to the kind of experiment: α1B adrenergic receptor antagonist assay (cAMP, CHO cells). It is filed as cell-based. The procedure:
(§1) α1 Adrenergic and Dopamine D2 Receptors. Methods: Binding and functional assays for α1 adrenergic and dopamine D2 receptors were performed by Eurofins Cerep according to their methods.
Antagonist activity. The antagonistic effects of test compounds on the α1A and α1B adrenergic receptors were measured using human receptor-transfected Chinese hamster ovary (CHO) cells. Antagonist activity was determined by measuring compound effect on agonist (epinephrine)-induced calcium mobilization in the α1A receptor assay or cAMP levels in the α1B receptor assay. In these experiments, CHO cells were incubated in duplicate at room temperature with test article and epinephrine at 3 nM in the α1A receptor assays or at 3000 nM in the α1B receptor assay. Compound A was tested in the α1A receptor assay at 0.01-30 μM. […] Compound 1 and Compound 2 were assayed at 0.03 to 30 μM in the α1A receptor assay and 0.03 to 100 μM in the α1B receptor assay. In the α1A receptor assay, cytosolic calcium levels were measured fluorometrically using the fluorescent probe, Fluo4 Direct. Intracellular cAMP levels in the α1B adrenergic receptor assay were measured by homogenous time-resolved fluorescence (HTRF). The antagonism IC50 was defined as the concentration causing a half-maximum inhibition of control agonist response.

The subject of assay [2] is NCI-H929-1051 (lenalidomide-resistant). The experiment in a line: Cell proliferation assay (CTG, 120 h). Format: cell-based, human. To be noted: for IC50: Homo sapiens, 120 h. As to the method:
Cell Culture Materials: Human multiple myeloma cell lines were purchased from the vendors and cultured at 37° C. with 5% CO2 in the media as indicated in Table 1. Lenalidomide and pomalidomide resistant cell lines were obtained by methods as generally described previously (Lopez-Girona et al Leukemia 2012; 26(11): 2335). All cell lines were kept in log phase, and cell density and viability were monitored by trypan blue exclusion using the Vi-cell XR cell viability analyzer (Beckman Coulter, Brea, CA).
Preparation of Solutions of Test Article: Compounds were plated into black 384-well plates (Corning Inc.) to a final DMSO volume of 0.1% assuming a maximal volume of 50 μL. A 10-point dose response starting at 10 μM with a 1:3 dilution was printed in duplicate by acoustic dispense using the EDC ATS-100 platform. Alternatively, the 10-point dose response starting at 10 μM with a 1:10 dilution, or starting at 100 nM with a 1:3 dilutions were used.
Cell Proliferation Assays: The effect of compounds on the proliferation/viability of the hematological cell lines (Table 1), was assessed after 120 h incubation using CTG (Promega), according to manufacturer's instructions. Hematological cell lines were dispensed into compound plates by a Multidrop Combi Reagent Dispenser (Thermo Scientific, Waltham, MA) at a concentration of 0.1×10^6 cells per mL in a 50 μL total volume. At 120 h, 25 μL per well of CTG was dispensed by a Multidrop Combi Reagent Dispenser and adenosine triphosphate (ATP) release by viable cells was measured as relative luminescence units after 30 minutes using the Envision platform.
Results. […] The MM cell lines selected for this study were lines sensitive and resistant to lenalidomide and/or pomalidomide (Table 1), two agents used in the clinic to treat myeloma patients. Proliferation was assessed using the CellTitre-Glo© assay. Results for cultures incubated with the compounds were normalized to results for control cultures for each cell line. The IC50 for inhibition of cell growth by the compounds was determined for each cell line using ActivityBase software.
Combination with Dexamethasone. The activity of pomalidomide with that of Compound 2 alone or in combination with dexamethasone was evaluated across a panel of MM cell lines. […] Table 3 summarizes the potency (IC50) of the single agent and dexamethasone combination studies performed in the H929-1051 cell line. […] Each IC50 is the average from at least 3 independent experiments. Proliferation was monitored on Day 5 using Cell Titer-Glo.

The target of assay [3] is T2, dopamine D2L receptor (Homo sapiens, UniProt P14416).
T2 construct: host or cells: HEK-293 cells (membrane homogenates)
The experiment in a line: Dopamine D2L receptor radioligand binding (HEK-293). The procedure:
as §1
Dopamine D2 Receptor. Binding at 10 μM. The binding assay evaluated the affinity of test articles for the dopamine D2 receptor in transfected human embryonic kidney (HEK)-293 cells. For determining the binding in the D2S receptor assay, test article was incubated with 0.3 nM [^3H] methylspiperone or 1 nM [^3H] 7-hydroxy-2-N,N-dipropylaminotetralin (7-OH-DPAT). [3H] Methylspiperone at 0.3 nM also was used as control ligand in the D2L binding assay. Cell membrane homogenates were incubated in duplicate at room temperature for 60 minutes with ligand in the absence or presence of test articles at 10 μM. After the incubation period, samples were filtered through glass fiber filters, the filters dried and then counted for radioactivity using a scintillation counter. Results are expressed as mean percent inhibition of control radioligand binding.
Binding IC50. To determine the binding IC50 in the D2 receptor assays, HEK-293 were tested as described above but with varying concentrations of test article. Compound A was tested at 0.01-30 μM in the D2S radioligand binding assay. […] Compound 1 was assayed at 0.03-100 μM in both the D2S and D2L assays, while Compound 2 was tested at 0.03-100 μM in the D2S assay and 0.01-100 μM in the D2L assays. The IC50 was defined as the concentration causing a half-maximum inhibition of control specific binding.

Setting [4] is: CTG, read-out: NCI-H929.1051 120 h IC50.
Where [5] appears, read: read-out: 0.01 μM Dex Combo IC50, H929-1051, Day 5, in combination with 0.01 μM dexamethasone.
Setting [6] is: read-out: 0.1 μM Dex Combo IC50, H929-1051, Day 5, in combination with 0.1 μM dexamethasone.
The mark [7] stands for this setting: read-out: 1 μM Dex Combo IC50, H929-1051, Day 5, in combination with 1 μM dexamethasone.
[8] abbreviates: H929-1051, Day 5 Cell Titer-Glo, single agent, read-out: Single Agent IC50.

Read-outs that look alike come from different tables or passages of the source.

T2 sequence (P14416 whole entry): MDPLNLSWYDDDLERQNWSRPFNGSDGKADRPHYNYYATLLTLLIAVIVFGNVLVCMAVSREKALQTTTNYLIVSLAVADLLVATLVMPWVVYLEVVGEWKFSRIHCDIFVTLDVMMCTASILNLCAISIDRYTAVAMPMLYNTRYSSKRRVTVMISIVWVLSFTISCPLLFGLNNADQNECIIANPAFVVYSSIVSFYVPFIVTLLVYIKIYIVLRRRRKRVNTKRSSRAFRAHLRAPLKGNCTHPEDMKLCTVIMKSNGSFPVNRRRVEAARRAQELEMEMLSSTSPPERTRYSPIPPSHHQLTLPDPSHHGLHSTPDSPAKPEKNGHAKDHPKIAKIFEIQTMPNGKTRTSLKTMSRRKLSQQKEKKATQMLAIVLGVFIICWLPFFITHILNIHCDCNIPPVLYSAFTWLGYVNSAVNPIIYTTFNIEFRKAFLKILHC

As a reminder, the IC50 is the concentration that inhibits the measured activity by half. The term inhibition denotes the drop in the measured response relative to a control, in per cent. With `N#Cc1ccc(N2CCN(Cc3ccc(COc4cccc5c4CN(C4CCC(=O)NC4=O)C5=O)cc3)CC2)c(F)c1` (racemic) [Compound 1, 4-(4-(4-(((2-(2,6-dioxopiperidin-3-yl)-1-oxoisoindolin-4-yl)oxy)methyl)benzyl)piperazin-1-yl)-3-fluorobenzonitrile], the IC50 in assay [1] was determined as 6900 nM; in assay [2] (setting [4]) it was 2.5 nM; in assay [3] it was 2300 nM. Besides, the inhibition at 10 µM in assay [3] (read-out: D2L % Inhibition (10 μM)) was 55%.

For `N#Cc1ccc(N2CCN(Cc3ccc(COc4cccc5c4CN([C@H]4CCC(=O)NC4=O)C5=O)cc3)CC2)c(F)c1` [Compound 2, (S)-4-(4-(4-(((2-(2,6-dioxopiperidin-3-yl)-1-oxoisoindolin-4-yl)oxy)methyl)benzyl)piperazin-1-yl)-3-fluorobenzonitrile], the IC50 in assay [1] was determined as 2400 nM; in assay [2] (setting [5]), 0.41 nM; in assay [2] (setting [6]), 0.0429 nM; in assay [2] (setting [7]), 0.018 nM; in assay [2] (setting [8]), 0.98 nM; in assay [2] (setting [4]), 1 nM. The compound also returned an IC50 in assay [3] of approximately 3000 nM. Besides, the “potency of single agent versus pomalidomide-dexamethasone combination” value in assay [2] (H929-1051) worked out at 10 fold.

Take `O=C1CC[C@H](N2Cc3c(OCc4ccc(CN5CCN(c6ccc(F)cc6F)CC5)cc4)cccc3C2=O)C(=O)N1` [Compound B]: the IC50 in assay [1] (epinephrine 3000 nM, cAMP, read-out: Antagonism IC50 α1B) turned out to be 78 nM; in assay [3] (read-out: D2L Binding IC50), 84 nM. Also, the “D2L % Inhibition (10 μM)” value in assay [3] (10 μM) came out at 103%.

On to `Nc1cccc2c1C(=O)N(C1CCC(=O)NC1=O)C2=O` (stereo not shown) [Pomalidomide, pomalidomide], for which the IC50 in assay [2] (setting [5]) is 3840 nM; in assay [2] (setting [6]), 118 nM; in assay [2] (setting [7]) it was 18.8 nM; in assay [2] (setting [8]) it was more than 10000 nM.

The record behind these values is US12029738B2, “Antiproliferative compounds and methods of use thereof” (Celgene Corporation, priority 2017, dated 2024).
